{"source": "patent US8198231B2", "about": "“Compositions and methods for treatment of staphylococcal infection while suppressing formation of antibiotic-resistant strains” (priority 1999, dated 2012)", "key": {"[1]": {"tested_on": "strains 27619, Col, 27227 and VA348", "experiment": "Checkerboard susceptibility testing of lysostaphin and oxacillin", "format": "cell-based", "conditions": "oxacillin in concentrations up to 1 μg/ml; all strains tested", "experimental": "Checkerboard susceptibility testing was conducted to determine whether simultaneous administration of lysostaphin and oxacillin (a β-lactam) would be effective in suppressing the development of resistance. Oxacillin concentrations varied between 0.0156 μg/ml and 1 μg/ml. Lysostaphin concentrations varied between 0.00048 and 0.9 μg/ml. Four strains were tested for evidence of synergy between lysostaphin and oxacillin; 27619, Col, 27227 and VA348."}, "[2]": {"tested_on": "staphylococcal infected rabbits", "experiment": "Rabbit model of aortic valve endocarditis", "format": "in vivo", "excerpt": "The simultaneous treatment of staphylococcal infection with suppression of resistant strain formation is an exciting and widely useful invention nowhere predicted in the art. This invention offers the possibility of treating staphylococcal infections while suppressing the generation of strains resistant to any or all active agents administered."}, "[3]": {"conditions": "lysostaphin 1 mg/kg bid (low dose), alone or together with nafcillin"}}}
{"substance": "lysostaphin", "values": [{"measurement": "MIC of lysostaphin in the presence of oxacillin", "setting": "[1]", "value": "unchanged"}, {"measurement": "Bacterial counts in kidneys", "setting": "[2]; [3]", "value": "high counts"}, {"measurement": "Bacterial counts in vegetations", "setting": "[2]; [3]", "value": "high counts"}, {"measurement": "Recovery of resistant colonies/strains", "setting": "[2]; [3]", "value": "recovery of a number of resistant colonies"}, {"measurement": "Minimum dose for sterilization", "setting": "[2]; lysostaphin alone", "value": 5, "unit": "mg/kg tid"}]}
